“And” between values parts separate entries of the source, which are not always exact repeats. Identical values can stand only once.

The subject of assay [1] is seven pancreatic cell lines. The assay can be described thus: MTT cytotoxicity, panel of seven pancreatic cancer cell lines. The class given is cell-based. The settings on record: seven pancreatic cell lines. On the procedure:
(§1) Eight of these analogs 6d, 6h, 6n, 6g, 7b, 7d, 8g, and 8h were tested for their cytotoxicity in seven pancreatic cell lines ASPC1, Panc1, Panc203, Panc430, Pane 1005, MiaPaca2, and HS766T using MTT assay. Cells were trypsinized, seeded at 5×10^3 cells/well in 96-well plate and allowed to grow for 24 hours before the treatment with exponential increasing concentrations of drugs in the presence of 10% FBS. After a 96-hours period of treatment, 20 μl of MTT solution (5 mg/ml in PBS) were added to each well, and the plates were then incubated for 3 hours at 37° C. Medium was then replaced with 100 μl of DMSO per well. Plates were shaken and the optical density was measured at 570 nm using a multiwell plate reader (Bio-Rad, Model 550, Bio-Rad Inc., Hercules, Calif.). Each experiment was performed in triplicate for each drug concentration and was carried out independently at least 3 times. The IC50 value was defined as the concentration needed for a 50% reduction in the absorbance calculated based on the survival curves. Response to drug treatment was assessed by standardizing treatment groups to untreated controls. Compounds activity was compared with compound 1.
(§2) Table 2 (Growth Inhibition of Pancreatic Cancer Cell Lines by BPU and BPTU Analogues (IC50) a) compares the cytotoxicity of a series of new derivatives against a panel of seven pancreatic cancer cell lines, as determined by MTT assay. See, Mosmann, T., J. Immunol. Methods 65:55-63 (1983).

Another assay concerns Panc430. The assay can be described thus: MTT growth inhibition, pancreatic cell line Panc430. The class given is cell-based. The following applies: for IC50: MTT assay, 96 h treatment, average of three independent experiments. The procedure: as §1, §2
Background: Formazan colour is commonly taken as a measure of viable cells.

A further assay relates to tubulin. The assay can be described thus: Inhibition of [3H]colchicine binding. The settings on record: Tubulin 1 μM; [3H]colchicine and inhibitor at 5 μM.
The test system of another assay is MCF-7 cells. The assay can be described thus: Apoptosis of MCF-7 cells. The following applies: 48 hours. The class given is cell-based.
In assay [2] the test system is pancreas cancer xenografts. The assay can be described thus: In vivo growth inhibition of patient-derived pancreas cancer xenografts. More on the design: species or system athymic nude mice. The settings on record: for average growth after 28 days of treatment (T/C): individual patient xenograft cases; for efficacy in case 194: case with the greatest expression of MAPT; for slopes of treated versus control group, all nine cases: integrated analysis of nine treatment groups; for efficacy in case 215: low MAPT-expressing case, docetaxel 30 mg/kg i.p. once a week for 2 weeks. On the procedure:
Six-week-old female athymic nude mice (Harlan) were used. The research protocol was approved by the Johns Hopkins University Animal Care and Use Committee, and animals were maintained in accordance to guidelines of the American Association of Laboratory Animal Care. Surgical non-diagnostic specimens from patients who had undergone surgery at the Johns Hopkins Hospital were implanted s.c. in one to two mice for each patient, with two small pieces per mouse (F1 generation). Tumors were grown to 1.5 cm^3 and then harvested, divided into small ˜3×3×3 mm pieces, and transplanted to another five mice, with two tumors per mouse (F2 generation). After a second growth passage, tumors were excised and propagated to cohorts of ≧20 mice. These groups constituted the F3, or treatment cohort. Tumors from this third mouse-to-mouse passage were allowed to grow to ˜200 mm3, at which time mice were randomized into three treatment groups, with five to six mice (10 evaluable tumors) in each group: control (vehicle), 6n (50 mg/kg i.p. twice per week), and 7d (50 mg/kg i.p. twice per week). Docetaxel treatment was given to selected groups at a dose of 30 mg/kg i.p. once a week for 2 weeks. Mice were monitored daily for signs of toxicity and were weighed thrice per week. Tumor size was evaluated twice per week by caliper measurements using the following formula: tumor volume=[length×width^2]/2. Relative tumor growth inhibition was calculated by relative tumor growth of treated mice divided by relative tumor growth of control mice from the onset of therapy (T/C).
To assess the treatment effect, a hierarchical linear regression model was used with random intercepts and fixed slopes. Based on the results of exploratory plots, the assumption of fixed effects for slopes seemed reasonable. This model allowed for mouse effects to be nested within patient effects so that the hierarchical structure is fully accounted for. Specifically, the following linear regression model was fitted: log(γiJt)=a1ijtimeijt+b2jtimeijt×trtij+βtime^2ijt+eijt where j indexes patient, i indexes mouse, and t indexes time; yijt is the percentage change in tumor volume (compared with day 0) in mouse i, which is a xenograft for patient j at time t; and trtij is treatment (1=treated, 0=control) received by mouse i, which is a xenograft for patient j. […] An intercept and main effect of treatment were not included in the model that makes two assumptions: (a) at time 0, the change from baseline is 0 (which is empirically true), and (b) at baseline, the treated and untreated curves intersect. The model was fit using Win-Bugs software that estimates models using a Markov chain Monte Carlo estimation procedure. A burn-in of 10,000 iterations was done, and then the chain was run for an additional 20,000 iterations, of which every 10th iteration was saved for inference. Several chains were run with different starting values to ensure convergence. No convergence issues arose. The fitted model was used to make inferences with respect to the treatment effect and to create fitted regression lines (rescaled on the Y-axis for clearer interpretation). Point estimates of variables of interest (e.g., expected difference in tumor volume between treated and control at 28 days) and 95% credible intervals were based on the mean of posterior distributions and the 2.5th and 97.5th quantiles of the posterior distribution, respectively. The comparisons between means and proportions obtained from the biological studies were done using Student's t-test and χ^2 method, respectively. ANOVA was used when three or more variables were compared.
Tumors from nine cases of pancreatic cancer were used to establish xenografts in nude mice, and the animals were treated with either vehicle, 6n, or 7d (FIG. 36A). The level of efficacy varied both between drugs and within cases treated with each drug. FIG. 37 provides an integrated summary of all data points obtained in the studies. […]

The test system of a further assay is Panc203. Kind of assay: MTT growth inhibition, pancreatic cell line Panc203. The class given is cell-based. The settings on record: Panc203; for IC50: Homo sapiens, MTT assay, 96 h treatment, average of three independent experiments. On the procedure: as §1, §2

Turning to `O=C(NC(=O)c1ccccc1[N+](=O)[O-])Nc1ccc(Sc2ncc(Br)cn2)cc1` [Compound 6n, 1-[4-(5-Bromopyrimidin-2-ylsulfanyl)phenyl]-3-(2-nitrobenzoyl)-urea], the “potency relative to compound 1, pancreatic cell lines” value in assay [1] amounted to 20 time. In addition, in the assay with Panc430, the midpoint of inhibition, the IC50, lay at 0.09 µM. For the same compound, in the assay with Panc430 (Panc430), the “increase in potency over 6m” value turned out to be 111 fold. In the assay with tubulin, the “colchicine binding (% ± SD), inhibition of [3H]colchicine binding” value stood at 17 ± 3%. Besides, the rate of apoptosis in the assay on MCF-7 cells (10 nM) was found to be 29.7%. Also, the rate of apoptosis in the assay with MCF-7 cells (30 nM) turned out to be 51.2%. This compound registered a rate of apoptosis with MCF-7 cells (100 nM) of 53.6%. Moreover, in assay [2] (50 mg/kg i.p. twice per week), the “proportion of sensitive cases, above the median MAPT expression” value is given as 0 of 4; the “proportion of sensitive cases, below the median MAPT expression” value is recorded as 4 of 5; the “average growth after 28 days of treatment (T/C)” value was ≤ 50% and 60%. Moreover, in assay [2], the “efficacy in case 194” value is “inactive”; the “slopes of treated versus control group, all nine cases” value was “no statistical differences”; the “efficacy in case 215” value was “particularly efficacious”. For the same compound, in assay [2] (direct comparison in three cases), the “efficacy compared with docetaxel” value is on record as “at least as efficacious (if not better) than docetaxel”. Moreover, the “efficacy compared with erlotinib” value in assay [2] (same patient-derived xenografts) is recorded as “superior to erlotinib”. For the same compound, in the assay on Panc203, the midpoint of inhibition, the IC50, lay at 0.7 µM and the “increase in potency over 6m” value stood at 14 fold.
Take `Nc1ccccc1C(=O)NC(=O)Nc1ccc(Sc2ncc(Br)cn2)cc1` [Compound 7d]: the “potency relative to compound 1, pancreatic cell lines” value in assay [1] is 20 time. In the assay with Panc430, 0.2 µM corresponded to half-maximal inhibition (IC50). Besides, the “increase in activity compared to 7c” value in the assay on Panc430 (Panc430) is listed as over 50 fold. Besides, in assay [2] (50 mg/kg i.p. twice per week), the “average growth after 28 days of treatment (T/C)” value is 43% and 59%. In addition, in assay [2], the “efficacy in case 194” value was “inactive”; the “slopes of treated versus control group, all nine cases” value is recorded as “no statistical differences”; the “efficacy in case 215” value is on record as “particularly efficacious”. In the assay with Panc203, the midpoint of inhibition, the IC50, lay at 0.085 µM and the “increase in activity compared to 7c” value is over 117 fold.

(Values after patent publication US20090099218A1, “SYNTHESIS OF NOVEL TUBULIN POLYMERIZATION INHIBITORS: BENZOYLPHENYLUREA (BPU) SULFUR ANALOGS” (priority 2007, published 2009).)
